From ChEMBL document CHEMBL1201862, “PubChem BioAssay data set” (2004)
Active and inactive are the calls of the source.

Assays:
Cytochrome P450 2C19 = Cytochrome P450 2C19 (Homo sapiens, UniProt P33261); test: Cytochrome panel assay with activity outcomes. Panel member name: p450-cyp2c19 Compounds with AC50 equal or less than 10 uM are considered active; assay type: functional
[1] = HEp-2 cell cytotoxicity, dose response, cytotoxicity control for RSV inhibitor project, HTS (AID 2410); assay type: functional; conditions: human respiratory syncytial virus
Cytochrome P450 2C9 = Cytochrome P450 2C9 (Homo sapiens, UniProt P11712)
[2] = cytotoxicity toward NIH3T3 fibroblasts, dose response, counter-screen, cell-based, ATP luminescence, mouse fibroblasts (AID 2010); assay type: functional; conditions: NIH3T3;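 note: cells exposed to compound for about 90 hours before reading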
[3] = inhibitors of intracellular T. cruzi replication, confirmation, NIH3T3 host cells, beta-gal luminescence (AID 2044); assay type: functional, cell-based;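 note: intracellular parasites grown in NIH/3T3 mouse fibroblasts as host cells; luminescent beta-galactosidase reporter signal from transgenic T. cruzi replicating inside host cells; inhibitors lower the luminescence signal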
Streptococcus = test: Group A Streptococcus viability loss, dose response, counter-screen for streptokinase expression inhibitor project, luminescence, BacTiterGlo (AID 1915); assay type: functional, organism-based;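 note: potency for reduction of bacterial viability or growth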
[4] = tested on: Streptococcus sp. 'group A'; test: growth inhibition of control SK(-) GAS strain, dose response, counter-screen for streptokinase expression inhibitor project, luminescence, kanamycin, BacTiterGlo, confirmation (AID 1900); assay type: functional, organism-based
Streptokinase A = biological target: T1, Streptokinase A (Streptococcus pyogenes serotype M1, UniProt P10520); test: S. pyogenes streptokinase expression inhibitors, potency, dose response, plasminogen activation absorbance, OD405 (AID 1914); assay type: functional, Streptococcus pyogenes M1 GAS;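 note: secreted streptokinase activity via plasminogen activation per viability signal from cell pellet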
T1 sequence (P10520 whole entry): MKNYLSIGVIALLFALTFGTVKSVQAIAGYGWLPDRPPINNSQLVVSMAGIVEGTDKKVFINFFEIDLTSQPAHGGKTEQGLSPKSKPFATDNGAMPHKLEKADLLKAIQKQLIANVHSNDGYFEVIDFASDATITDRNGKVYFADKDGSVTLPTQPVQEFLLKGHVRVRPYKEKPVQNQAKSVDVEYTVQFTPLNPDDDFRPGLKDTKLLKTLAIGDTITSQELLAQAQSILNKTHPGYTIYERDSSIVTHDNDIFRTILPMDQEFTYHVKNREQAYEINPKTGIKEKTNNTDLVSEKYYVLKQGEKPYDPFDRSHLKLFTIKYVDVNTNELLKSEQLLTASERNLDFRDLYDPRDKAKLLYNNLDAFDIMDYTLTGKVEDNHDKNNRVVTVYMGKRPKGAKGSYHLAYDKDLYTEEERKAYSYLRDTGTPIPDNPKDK

[5] = biological target: T2, Corticotropin-releasing factor receptor 2/Corticotropin-releasing factor-binding protein (Homo sapiens, UniProt P24387+Q13324); test: activators of CRF receptor 2 with binding protein – uHTS hits, confirmation (AID 602473); assay type: functional; conditions: read-out: EC50_Mean
T2 sequence (Q13324 whole entry): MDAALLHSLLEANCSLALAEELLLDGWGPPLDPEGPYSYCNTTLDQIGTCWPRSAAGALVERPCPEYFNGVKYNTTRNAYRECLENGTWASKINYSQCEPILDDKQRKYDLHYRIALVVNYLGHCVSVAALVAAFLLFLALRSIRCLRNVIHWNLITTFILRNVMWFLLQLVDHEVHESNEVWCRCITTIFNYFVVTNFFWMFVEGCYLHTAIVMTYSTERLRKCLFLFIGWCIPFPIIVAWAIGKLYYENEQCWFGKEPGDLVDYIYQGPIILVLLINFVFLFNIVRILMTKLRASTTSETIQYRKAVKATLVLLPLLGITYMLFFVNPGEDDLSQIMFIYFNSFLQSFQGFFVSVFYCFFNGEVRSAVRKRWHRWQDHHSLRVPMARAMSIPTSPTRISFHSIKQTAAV
T2 sequence (P24387 whole entry): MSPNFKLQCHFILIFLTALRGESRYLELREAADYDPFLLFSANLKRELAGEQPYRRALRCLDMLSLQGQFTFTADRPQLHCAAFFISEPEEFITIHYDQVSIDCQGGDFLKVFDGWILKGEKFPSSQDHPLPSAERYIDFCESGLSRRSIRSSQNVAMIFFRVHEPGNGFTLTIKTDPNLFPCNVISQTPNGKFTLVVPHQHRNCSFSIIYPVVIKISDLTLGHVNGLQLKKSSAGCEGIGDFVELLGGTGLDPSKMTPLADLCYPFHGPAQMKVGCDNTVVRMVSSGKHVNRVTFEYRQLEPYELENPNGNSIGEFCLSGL

Cytochrome P450 3A4 = Cytochrome P450 3A4 (Homo sapiens, UniProt P08684);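 note: CYP3A4 tested as one member of a cytochrome P450 panel screen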
Sequence of Cytochrome P450 3A4 (P08684 whole entry): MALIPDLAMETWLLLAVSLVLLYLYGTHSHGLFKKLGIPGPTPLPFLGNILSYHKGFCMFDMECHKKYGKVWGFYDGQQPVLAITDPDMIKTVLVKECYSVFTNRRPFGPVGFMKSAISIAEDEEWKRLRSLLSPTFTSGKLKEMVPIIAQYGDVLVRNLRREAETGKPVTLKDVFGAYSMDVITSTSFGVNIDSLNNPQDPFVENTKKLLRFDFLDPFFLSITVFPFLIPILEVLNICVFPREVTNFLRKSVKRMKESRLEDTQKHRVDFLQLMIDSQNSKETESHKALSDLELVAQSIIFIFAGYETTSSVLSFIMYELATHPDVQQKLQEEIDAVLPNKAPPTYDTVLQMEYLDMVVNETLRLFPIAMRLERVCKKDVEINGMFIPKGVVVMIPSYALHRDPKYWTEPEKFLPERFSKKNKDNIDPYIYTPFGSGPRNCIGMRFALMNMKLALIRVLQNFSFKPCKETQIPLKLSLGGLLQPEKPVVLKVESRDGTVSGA

Sequence of Cytochrome P450 2C9 (P11712 whole entry): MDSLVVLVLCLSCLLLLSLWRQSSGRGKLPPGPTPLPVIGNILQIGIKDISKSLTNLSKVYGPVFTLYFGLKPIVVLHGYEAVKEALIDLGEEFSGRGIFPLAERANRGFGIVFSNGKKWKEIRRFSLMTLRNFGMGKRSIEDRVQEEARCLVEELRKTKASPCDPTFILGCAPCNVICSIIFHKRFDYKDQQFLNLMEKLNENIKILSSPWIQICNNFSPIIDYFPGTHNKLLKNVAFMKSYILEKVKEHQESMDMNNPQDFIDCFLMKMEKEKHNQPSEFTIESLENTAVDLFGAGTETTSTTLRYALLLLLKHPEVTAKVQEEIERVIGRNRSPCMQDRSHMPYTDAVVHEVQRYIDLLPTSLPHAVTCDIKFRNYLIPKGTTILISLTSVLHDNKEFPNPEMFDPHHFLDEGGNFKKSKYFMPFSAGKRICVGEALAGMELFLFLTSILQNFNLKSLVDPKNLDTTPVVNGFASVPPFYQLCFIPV
Sequence of Cytochrome P450 2C19 (P33261 whole entry): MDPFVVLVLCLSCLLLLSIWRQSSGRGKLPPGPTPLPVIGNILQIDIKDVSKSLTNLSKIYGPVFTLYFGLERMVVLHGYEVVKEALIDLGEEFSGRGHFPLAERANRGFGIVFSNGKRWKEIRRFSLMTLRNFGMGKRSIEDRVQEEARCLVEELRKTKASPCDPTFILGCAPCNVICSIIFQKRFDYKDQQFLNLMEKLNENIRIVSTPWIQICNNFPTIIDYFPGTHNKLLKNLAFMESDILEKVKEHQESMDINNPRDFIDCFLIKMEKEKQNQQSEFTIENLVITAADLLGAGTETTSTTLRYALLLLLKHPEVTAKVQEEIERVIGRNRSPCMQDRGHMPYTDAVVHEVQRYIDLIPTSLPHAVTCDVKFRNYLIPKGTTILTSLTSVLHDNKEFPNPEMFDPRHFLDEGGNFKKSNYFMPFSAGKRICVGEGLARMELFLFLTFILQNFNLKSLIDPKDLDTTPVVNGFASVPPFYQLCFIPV

## O=C(O)CC[C@@H](NC(=O)c1ccccc1C(=O)O)C(=O)O
Cytochrome P450 2C19; read-out: AC50
  AC50: 0.0251 µM (inconclusive)

## CC1CN(S(=O)(=O)c2cccc(C(=O)Nc3cc(Cl)ccc3N3CCOCC3)c2)CC(C)O1 (centres undefined)
[1]
  CC50: 43 µM (active)

## CN(C)c1ccc(-c2cncnc2NCCc2cnc[nH]2)cc1
Cytochrome P450 2C9
  AC50: 0.501 µM (inconclusive)

## CCC1CCCCN1c1nc(-c2ccncc2)nc2ccccc12 (centres undefined)
[2]
  EC50: 6.4 µM (active)
[3]
  EC50: 0.521 µM (active)

## Cc1ccc(NC2c3ncccc3C(=O)N2Cc2ccc(F)cc2)cc1 (centres undefined)
[1]
  CC50: > 50 µM (active)

## COc1ccc(Nc2nnc(-c3ccc(O)cc3)c3ccccc23)cc1
[2]
  EC50: > 60 µM (not active)
[3]
  EC50: 3.48 µM (active)

## CCN1CCCc2cc(CN(CCN3CCOCC3)C(S)=Nc3ccc(OC)c(Cl)c3)ccc21
[2]
  EC50: > 60 µM (not active)
[3]
  EC50: 1.63 µM (active)

## O=C(NNc1nc(-c2ccc(F)cc2)cs1)c1ccccc1
Streptococcus
  EC50: > 150 µM (not active)
[4]
  EC50: 0.831 µM (active)
Streptokinase A
  EC50: > 150 µM (not active)

## CCNc1nc(NCC)nc(-n2nc(C)cc2C)n1
Streptococcus
  EC50: > 150 µM (not active)
[4]
  EC50: 17.2 µM (active)
Streptokinase A
  EC50: > 150 µM (not active)

## Cn1cccc1CC(=O)NNC(=S)NC(=O)c1ccccc1Br
Streptococcus
  EC50: 137 µM (active)
[4]
  EC50: 5.95 µM (active)
Streptokinase A
  EC50: > 150 µM (not active)

## COc1ccc(C(CNC(=O)c2oc3ccc(Br)cc3c2C)N2CCCCC2)cc1 (centres undefined)
[2]
  EC50: > 60 µM (not active)
[3]
  EC50: 2.37 µM (active)

## Cc1ccc(Cn2c(C(C)Nc3nc(-c4ccc(F)cc4)cs3)nc3cc(Cl)c(Cl)cc32)cc1 (centres undefined)
[1]
  CC50: 49.3 µM (active)

## CCCCC(=O)NC(=S)NNC(=O)CCc1ccccc1
Streptococcus
  EC50: 8.5 µM (active)
[4]
  EC50: 3.35 µM (active)
[5]
  EC50: 4.32 µM (active)

## CCCCNC(=O)NS(=O)(=O)c1ccc(C(=O)OC(C)C)o1
Cytochrome P450 2C19; read-out: AC50
  AC50: 39.8 µM (inconclusive)

## CC(C)NC(=O)N1CC2(CCN(C(=O)c3ccncc3)CC2)C1
Cytochrome P450 3A4
  AC50: 0.0794 µM (inconclusive)

## Clc1ccc(-c2[nH]nc3c2CCC3)c(Cl)c1
Streptococcus
  EC50: > 150 µM (not active)
[4]
  EC50: 16.8 µM (active)

## Clc1ccc(-c2n[nH]c3c2CCC3)c(Cl)c1
Streptokinase A
  EC50: > 150 µM (not active)

## Cc1c(C)c(C)c2[nH]c(-c3ccc4c(c3)OCO4)nc2c1C
[2]
  EC50: > 30 µM (not active)
[3]
  EC50: 1.45 µM (active)

## C[C@]12C=CC(=O)C=C1CC[C@@H]1[C@H]3C[C@@H](O)[C@](O)(C(=O)CO)[C@@]3(C)C[C@H](O)[C@]12F
Cytochrome P450 2C9
  AC50: 15.8 µM (inconclusive)

## CCC/C=C(\CCC)C(NS(=O)(=O)c1ccc(C(F)(F)F)cc1)c1ccc(C(=O)OC)cc1 (centres undefined)
Cytochrome P450 3A4
  AC50: 1 µM (inconclusive)

## CCOC(=O)c1nn(-c2ccccc2Cl)c(=O)cc1OCC(=O)Nc1cccc(OC)c1
Streptococcus
  EC50: > 150 µM (not active)
[4]
  EC50: 31.2 µM (active)
Streptokinase A
  EC50: > 150 µM (not active)

## COc1ccc(C(=O)N2CCC3(CCCN(c4ccccn4)C3)CC2)cc1
Cytochrome P450 2C19; read-out: AC50
  AC50: 25.1 µM (inconclusive)

## Cc1ccccc1C(=O)Nc1ccc(C(=O)NNC(=O)CCCOc2ccc(Cl)cc2Cl)cc1
Cytochrome P450 2C19; read-out: AC50
  AC50: 17.8 µM (inconclusive)

## COC(=O)[C@@]1(Cc2ccc(OC)cc2)[C@H]2c3cc(C(=O)N4CCCC4)n(CCn4cc([N+](=O)[O-])nc4C)c3C[C@H]2CN1C(=O)c1ccccc1
Cytochrome P450 2C9
  AC50: 31.6 µM (inconclusive)

## COc1ccccc1NC(=O)Nc1ccc(Cc2ccncc2)cc1
[1]
  CC50: 19.1 µM (active)

## COc1ccc2nc(NC(C)=O)sc2c1
Cytochrome P450 2C19; read-out: AC50
  AC50: 39.8 µM (inconclusive)
Cytochrome P450 3A4
  AC50: 28.2 µM (inconclusive)

## CC[C@@H](c1ccccc1)n1c(=O)n2n(c1=O)[C@H]1[C@H](O)[C@H]3O[C@@H]3/C(=N/OCc3ccccc3)[C@@H]1CC2
Cytochrome P450 3A4
  AC50: 5.01 µM (inconclusive)

## CCOc1ccc(NS(=O)(=O)c2ccc(C(=O)N3CC(C)OC(C)C3)cc2)cc1 (centres undefined)
[5]
  EC50: 7.94 µM (active)

## CC(=O)c1cccc(NC(=O)c2csc(-n3nc(C)cc3C(F)(F)F)n2)c1
Cytochrome P450 2C19; read-out: AC50
  AC50: 7.94 µM (inconclusive)
Cytochrome P450 2C9
  AC50: 1 µM (inconclusive)

## CCOc1cc(CNc2ccc3c(c2)CCC3)ccc1OC
Streptococcus
  EC50: > 150 µM (not active)
[4]
  EC50: > 150 µM (not active)
Streptokinase A
  EC50: > 150 µM (not active)

## CCCCNC1=N/C(=C\c2ccco2)C(=O)N1c1ccccc1
Cytochrome P450 2C19; read-out: AC50
  AC50: 39.8 µM (inconclusive)
Cytochrome P450 2C9
  AC50: 4.47 µM (inconclusive)

## COC(=O)C1(C)C=C2C(=C(c3ccccc3)C(=O)C2C)CN1 (centres undefined)
Cytochrome P450 2C19; read-out: AC50
  AC50: 39.8 µM (inconclusive)

## CCCc1nnc(SCC(=O)N2CCCCC2)n1CC1CCCO1 (centres undefined)
Cytochrome P450 2C19; read-out: AC50
  AC50: 17.8 µM (inconclusive)

## CC(C)c1csc(CN2CCC(CO)(Cc3cccc(F)c3)CC2)n1
[2]
  EC50: > 60 µM (not active)
[3]
  EC50: 1.09 µM (active)

## CCN(CC)c1nc(-c2ccccc2)ncc1S(=O)(=O)c1ccc(C)cc1
[2]
  EC50: > 60 µM (not active)
[3]
  EC50: 2.65 µM (active)

## COc1ccc(-c2nc3cnc(Nc4cccc(OC)c4)nc3n(C[C@H]3CCCO3)c2=O)cc1
Cytochrome P450 3A4
  AC50: 5.01 µM (inconclusive)

## NC(=O)c1csc(-c2ccc(CO)o2)n1
Cytochrome P450 2C19
  AC50: inconclusive

## O=S(=O)(c1ccccc1)N1CCC2(CCN(c3ccccc3)CC2)CC1
Cytochrome P450 2C19; read-out: AC50
  AC50: 10 µM (inconclusive)
Cytochrome P450 3A4
  AC50: 2.51 µM (inconclusive)
Cytochrome P450 2C9
  AC50: 39.8 µM (inconclusive)

## COC(=O)c1cc(C(=O)Nc2nc3ccccc3[nH]2)cc([N+](=O)[O-])c1
Streptococcus
  EC50: > 150 µM (not active)
[4]
  EC50: 3.94 µM (active)
Streptokinase A
  EC50: > 150 µM (not active)

## C=CC[n+]1c(-c2ccc(C)cc2)csc1Nc1c(C)n(C)n(-c2ccccc2)c1=O
[2]
  EC50: > 60 µM (not active)
[3]
  EC50: 4.99 µM (active)

## CC(C)(C)c1nc(SCC(=O)Nc2ccc(N3CCOCC3)cc2)c2ccccc2n1
Cytochrome P450 3A4
  AC50: 1 µM (inconclusive)

## COc1ccc(C(=O)N2CCC[C@@]3(CCN(c4ccccc4)C3)C2)cc1
Cytochrome P450 3A4
  AC50: 7.94 µM (inconclusive)

## CN(c1ccccc1)S(=O)(=O)c1ccc(C(=O)Nc2ccncc2)cc1
[2]
  EC50: > 60 µM (not active)
[3]
  EC50: 1.18 µM (active)

## O=S(=O)(c1ccccc1)N1CCC2(CCN(c3ccc(-c4ccccc4)cc3)CC2)CC1
Cytochrome P450 3A4
  AC50: 20 µM (inconclusive)

## Cc1cc(Cl)ccc1N=C(S)NCCC(c1ccccc1)c1ccccc1
Streptococcus
  EC50: 30.3 µM (active)
[4]
  EC50: 5.18 µM (active)

## O=c1c(CCc2ccccc2)nc2cnc(Oc3ccccc3)nc2n1C1CC1
Cytochrome P450 3A4
  AC50: 15.8 µM (inconclusive)

## CCC(c1nnnn1C(C)(C)C)N(Cc1cccs1)Cc1cc2cc(C)c(C)cc2n2nnnc12 (centres undefined)
[2]
  EC50: > 60 µM (not active)
[3]
  EC50: 1.02 µM (active)

## CC(=O)Nc1c(C)nn(-c2ccc(C)c(C)c2)c1C
Cytochrome P450 2C19; read-out: AC50
  AC50: 39.8 µM (inconclusive)

## O=C(c1ccco1)N1CCN(C(=O)c2nn3cccnc3c2Cl)CC1
Cytochrome P450 2C19
  AC50: inconclusive

## CC1(C)CC(O)CC(C)(C)N1CC(O)COCCOc1ccc(Br)cc1 (centres undefined)
Cytochrome P450 2C19
  AC50: inconclusive

## CC(C)NC(=O)N(C)C[C@H]1OCc2cnnn2CCCC(=O)N([C@H](C)CO)C[C@H]1C
[5]
  EC50: > 53 µM (inactive)

## CCCc1nc2ccccc2c(=O)n1NC(=O)c1c(O)c2cccc3c2n(c1=O)CCC3
Streptococcus
  EC50: 7.68 µM (active)
[4]
  EC50: 3.78 µM (active)
Streptokinase A
  EC50: > 150 µM (not active)

## CCNC(=S)N/N=C/c1cccc(OCc2c(F)cccc2Cl)c1
[2]
  EC50: > 30 µM (not active)
[3]
  EC50: 1.15 µM (active)

## Cc1cccc(CNc2ncnc3ccc(-c4c(C)noc4C)cc23)c1
Cytochrome P450 2C9
  AC50: 1 µM (inconclusive)

## CC[C@@H](CO)Nc1nc(NCc2ccccc2)c2ncn(C(C)C)c2n1 [(S)-ROSCOVITINE]
Cytochrome P450 2C9
  AC50: 0.316 µM (inconclusive)
